Assay results as given in PubChem BioAssay (NCI).
Where “and” joins values, the source holds several entries; their conditions need not be identical. Equal values may be shown once.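 Protocol summary: plate cells (96-well), add compound at 5 concentrations, incubate 48 h, interpolate endpoints linearly. The concentration for 50% growth inhibition is given as GI50. The concentration for full growth arrest is given as TGI.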

Key:
Test in all cases: DTP human tumour cell line panel, 48 h
UACC-257 melanoma = test system: UACC-257 melanoma
OVCAR-4 ovarian = test system: OVCAR-4 ovarian
HCT-116 colon = test system: HCT-116 colon
SK-MEL-2 melanoma = test system: SK-MEL-2 melanoma
RPMI-8226 leukemia = test system: RPMI-8226 leukemia
SK-MEL-28 melanoma = test system: SK-MEL-28 melanoma
OVCAR-8 ovarian = test system: OVCAR-8 ovarian
SF-268 CNS = test system: SF-268 CNS
K-562 leukemia = test system: K-562 leukemia
SR leukemia = test system: SR leukemia

Structure (SMILES) | TGI (UACC-257 melanoma) | TGI (OVCAR-4 ovarian) | TGI (HCT-116 colon) | TGI (SK-MEL-2 melanoma) | TGI (RPMI-8226 leukemia) | TGI (SK-MEL-28 melanoma) | TGI (OVCAR-8 ovarian) | TGI (SF-268 CNS) | TGI (K-562 leukemia) | TGI (SR leukemia) | GI50 (OVCAR-4 ovarian) | GI50 (HCT-116 colon) | GI50 (SK-MEL-2 melanoma) | GI50 (RPMI-8226 leukemia) | GI50 (SK-MEL-28 melanoma) | GI50 (OVCAR-8 ovarian) | GI50 (SF-268 CNS) | GI50 (K-562 leukemia) | GI50 (UACC-257 melanoma)
O=c1cccc(C2CC(CO)C3CCCCN3C2)[nH]1 (stereo not given) | > 100 µM | > 100 µM | > 100 µM | > 100 µM | > 100 µM | > 100 µM | > 100 µM | > 100 µM | > 100 µM | – | – | – | – | – | – | – | – | – | –
CCN(CC)C(=S)SC | > 100 µM | – | > 100 µM | > 100 µM | > 100 µM | > 100 µM | > 100 µM | > 100 µM | > 100 µM | – | – | – | – | – | – | – | – | – | –
COc1ccc(/C=C2\CCCC(C(NO)c3ccc(OC)cc3)C2=NO)cc1 (stereo not given) | > 100 µM | > 100 µM | > 100 µM | > 100 µM | > 100 µM | 95.3 µM | > 100 µM | > 100 µM | > 100 µM | – | – | – | – | – | – | – | – | – | –
COC1C2C=CC(C2)[C@H]1[N+](=O)[O-] (stereo not given in full) | > 100 µM | > 100 µM | > 100 µM | > 100 µM | – | – | > 100 µM | > 100 µM | > 100 µM | > 100 µM | – | – | – | – | – | – | – | – | –
CC1=C(C(=O)Nc2cccc(Cl)c2)C(c2ccccc2F)C(C(=O)Nc2cccc(Cl)c2)=C(C)N1 | 22.3 µM | 21.3 µM | – | 27.1 µM | 11.1 µM | 23 µM | 46.9 µM | 36.8 µM | 24.6 µM | – | – | – | – | – | – | – | – | – | –
Cc1ccccc1C1=C(C(=O)Nc2ccc(Cl)c(Cl)c2)NC(=S)NC1N (stereo not given) | > 100 µM | > 100 µM | > 100 µM | > 100 µM | > 100 µM | > 100 µM | > 100 µM | > 100 µM | > 100 µM | – | – | – | – | – | – | – | – | – | –
CCn1c2ccc(O)cc2c2c(C)c3c[n+](C)ccc3c(C)c21 | – | 47.1 µM | > 100 µM | 20.1 µM | 68 µM | 16 µM | 41.4 µM | 4.33 µM | > 100 µM | – | 5.83 µM | 4.55 µM | 3.91 µM | 7.43 µM | 2.83 µM | 1.47 µM | 0.122 µM | 6.03 µM | –
COc1cc2ncnc(Nc3ccc(F)c(Cl)c3)c2cc1NC(=O)/C=C/CN1CCCCC1 | 3.39 µM and 3.51 µM | 4.86 µM and 7.17 µM | 3.1 µM and 3.54 µM | 3.52 µM and 3.39 µM | 5.11 µM and 4.99 µM | 3.36 µM and 3.14 µM | 5.35 µM and > 6.21 µM | 3.99 µM and 4.73 µM | 5.12 µM and > 8.09 µM | – | 1.16 µM and 1.79 µM | 1.45 µM and 1.54 µM | 1.81 µM and 1.72 µM | 1.95 µM and 1.93 µM | 1.79 µM and 1.65 µM | 1.28 µM and 1.64 µM | 1.5 µM and 1.42 µM | 1.65 µM and 2.05 µM | 1.66 µM and 1.79 µM
